In a melting point compilation (Tetko et al.; mined from patent text by program, amines drawn as free bases though some values may be those of a salt):

| melting point [°C] | SMILES |
| --- | --- |
| 190 to 191 | CC(C)n1nc(-c2sc(C(=O)NCc3ccccn3)nc2-c2ccccc2F)ccc1=O |
| 138 to 140 | CCC(CC)N1CCNc2c1cc(C)nc2Oc1c(C)cc(C)cc1C |
| 124 to 125 | Cc1ccc(Cn2ncnc2C(NS(=O)(=O)c2ccc(Cl)s2)C(C)C)cc1 (configuration not stated) |
| 115 to 117 | N#Cc1ccccc1Nc1cc2c(cc1Nc1ccccc1)C(=O)NC2=O |
| 152 to 153 | CC(C)(C)OC(=O)N1CCC(n2nc(-c3c(-c4ccccc4)nn4ccccc34)ccc2=O)CC1 |
| 265 to 268 | O=C1Nc2cc(CN3CCN(c4ccc(Cl)cc4)CC3)cnc2N2CCC[C@@H]12 |
| 305 to 306 | O=C(O)COc1cc2c(c(Cl)c1Cl)C(=O)c1ccccc1-2 |
| 133 to 136 | CC(C)(C)CNc1nc(Cl)ncc1CN=[N+]=[N-] |
| 135 to 136 | CC(=O)NCc1ccc(CN2CCN(c3ccccc3)CC2)cc1[N+](=O)[O-] |
| > 300 | CCn1cc(C(=O)O)c(=O)c2c(C)c(F)c(F)cc21 |
| 155 to 158 | N#CCOc1ccc2cc(-c3cnc(Cc4ccc5ccccc5c4)o3)ccc2c1 |
| 163 to 165 | CCOC(=O)c1cc(S(N)(=O)=O)c(Cl)cc1NCc1ccco1 |
| 185 to 194 | Cc1ccc(N=Nc2ccc(-c3ccc(-c4ccc(N=Nc5ccc(C)cn5)cc4OC(C)C)o3)c(OC(C)C)c2)nc1 |
| 112 to 115 | NC(=O)c1[nH]nc([C@@H]2O[C@H](CO)[C@@H](O)[C@H]2O)c1O |
| 45 to 47 | NCC(O)CN1CCN(C(c2ccc(F)cc2)c2ccc(F)cc2)CC1 (configuration not stated) |
| 124 to 127 | O=C1c2ccccc2N(Cc2cccs2)C2=NCCN12 |
| 192 to 193 | N#Cc1ccc(N(Cc2ccc(O)c(Cl)c2)n2cnnc2)cc1-c1ccoc1 |
| 96 to 97 | Fc1ccc(F)c(CC2CCN([C@H]3CC[C@H](c4ccc5c(c4)OCO5)CC3)CC2)c1 |

| melting point [°C] | SMILES |
| --- | --- |
| 175 to 176 | CCc1cc(OCc2ccc(C(=O)NS(=O)(=O)c3ccccc3C)cc2)c(C(=O)OC)c(CC)n1 |
| 45 to 46 | CSC(SC)=C(C#N)C(=O)N(C)C |
| 81 to 82 | COc1ccc(C(=O)c2ccc(OCCc3nc(-c4ccccc4)oc3C)cc2)c(OC(C)(C)C(=O)O)c1 |
| 140 to 142 | CC(=O)C(=Cc1ccc(S(C)(=O)=O)c(Cl)c1)C(C)=O |
| 298 to 300 | COc1cccc2c(=O)cc(C=Cc3ccc(C(=O)O)cc3)oc12 |
| 85 | CCCN(Cc1ccc(C(=O)N(CCC)C2CCc3ncsc3C2)cc1)C1CCc2ncsc2C1 (configuration not stated) |
| 253 | Cc1cc(-c2ccc(Cl)cc2)nc2c(-c3nc(-c4ccc(S(N)(=O)=O)s4)no3)cnn12 |
| 95 to 96 | COc1ccc(CCCc2ccc(O)cc2)c(O)c1 |
| 150 to 152 | CC(C)S(=O)(=O)C1C(=O)N(Cc2ccccc2)C(=O)c2ccc(Cl)cc21 (configuration not stated) |
| 124 to 125 | CCOC(=O)CCNc1ncccc1NC(=O)c1ccc(Cl)cc1 |
| 204 to 205 | Cc1cc(-c2ccc(C(=O)N3CCN(S(=O)(=O)c4ccc5cc(Br)ccc5c4)CC3)cc2)ccn1 |
| 229 to 232 | COc1ccc(-c2cncn2-c2ccc(S(=O)(=O)NC(C)(C)C)cc2)cc1F |
| 236 | CSc1cc(CCC(=O)O)cc(-c2nc(=O)c3ccccc3s2)n1 |
| 250 to 253 | CSc1ncc2cc(-c3c(Cl)cccc3Cl)c(N)nc2n1 |
| 110 to 112 | Nc1c(Cl)cc(CO)cc1Cl |
| 230 to 232 | O=C1N(Cc2nccnc2C(F)(F)F)c2ccccc2C12COc1cc3c(cc12)OCCO3 (configuration not stated) |
| > 300 | O=c1c2cc(O)ccc2sc2c([N+](=O)[O-])ccc(Cl)c12 |

| SMILES | melting point [°C] |
| --- | --- |
| CN(C)Cc1nnc(CO)n1-c1ccc(Cl)cc1C(=O)c1ccccc1 | 138 to 141 |
| CC(C)(C)O[C@@H]1C[C@H]2C(=O)O[C@H](C(Cl)(Cl)Cl)N2C1 | 147 |
